Source: patent publication US5523315A, “N-(hydroxyethyl)butanediamide derivatives” (Bio-Mega/Boehringer Ingelheim Research Inc., priority 1993, dated 1996)

What follows are compounds tested against T1, human renin (Homo sapiens, UniProt P00797) (assay: plasma renin assay (inhibition of human renin; angiotensin I generated, measured by radioimmunoassay)). Conditions: human plasma pool, pH 6.0, 2 h incubation at 37°.
T1 construct: A human plasma pool is used as the source of both the substrate (angiotensinogen) and the enzyme (renin); from tissue; host or cells: pooled human plasma
T1 sequence (P00797 67-406): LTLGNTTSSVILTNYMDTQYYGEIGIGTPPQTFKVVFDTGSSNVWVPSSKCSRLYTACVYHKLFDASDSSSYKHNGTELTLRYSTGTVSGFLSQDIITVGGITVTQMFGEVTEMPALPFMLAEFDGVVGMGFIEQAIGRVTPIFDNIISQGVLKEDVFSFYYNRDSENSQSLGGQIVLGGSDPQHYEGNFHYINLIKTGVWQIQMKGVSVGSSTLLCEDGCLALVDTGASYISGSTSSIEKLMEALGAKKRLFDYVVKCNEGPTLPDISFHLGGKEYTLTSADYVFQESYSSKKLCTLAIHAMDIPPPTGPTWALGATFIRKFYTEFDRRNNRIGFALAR
Format: biochemical
Experimental: The assay is performed as follows: The test compound (i.e. the inhibitor) is dissolved in dimethylsulfoxide (1 mM stock solution) and diluted with an aqueous buffer solution of 270 mM 2-(N-morpholino)ethanesulfonic acid and 1% human serum albumin (pH 5.85, also containing dimercaprol and 8-hydroxyquinoline sulfate in accordance with the instructions of the RIA kit noted below) to give an assay mixture in which the final dimethylsulfoxide content is 1% (v/v).
A human plasma pool is used as the source of both the substrate (angiotensinogen) and the enzyme (renin). The reaction is initiated by the addition of 50 μL of human plasma pool to 50 μL of various concentrations of inhibitor in the 1% dimethylsulfoxide assay buffer. The plasma renin activity is measured by the amount of angiotensin I generated at pH 6.0 following a 2 h incubation at 37°.
Quantitation of angiotensin I is performed by radioimmunoassay (RIA kit from New England Nuclear-Dupont, Mississauga, ON, Canada). The enzymatic activity of renin is expressed in ng of angiotensin I generated (/mL/2 h). The extent of inhibition of the reaction is determined from the amount of angiotensin I generated in reference to a control prepared without inhibitor. Nonlinear regression analysis is used to calculate the IC50 values, i.e. the molar concentration of the test compound required to cause a 50% inhibition of the enzyme activity.
With `CC(C)C[C@H](O)[C@H](O)[C@H](CC1CCCCC1)NC(=O)[C@@H](CC(=O)NCC(O)c1ccccn1)CC1CC1` (mixture of isomers) [Compound 22, N^4-[2(R,S)-hydroxy-2-(2-pyridinyl)ethyl]-N^1-[1(S)-(cyclohexylmethyl)-2(R),3(S)-dihydroxy-5-methylhexyl]-2(R)-(cyclopropylmethyl)butanediamide] the IC50 was 170 nM.
In the case of `CC(C)C[C@H](O)[C@H](O)[C@H](CC1CCCCC1)NC(=O)[C@@H](CC(=O)N(CC(=O)N(C)C)CC(O)C1CCCCC1)Cc1cscn1` (mixture of isomers) [Compound 42, N^4-[2-cyclohexyl-2(R,S)-hydroxyethyl]-N^4-[2-(dimethylamino)-2-oxoethyl]-N^1-[1(S)-(cyclohexylmethyl)-2(R),3(S)-dihydroxy-5-methylhexyl]-2(R)-(4-thiazolylmethyl)butanediamide], the IC50 is reported as 16 nM.
`CN(C)C(=O)CN(CC1(O)CCCCC1)C(=O)C[C@@H](CC1CC1)C(=O)N[C@@H](CC1CCCCC1)[C@@H](O)[C@@H]1CC(C)(C)N(C)C1=O` [Compound 38, N^4-[(1-hydroxycyclohexyl)methyl]-N^4-[2-(dimethylamino)-2-oxoethyl]-N^1-[1(S)-(cyclohexylmethyl)-2(S)-hydroxy-2-(1,5,5-trimethyl-2-oxopyrrolidin-3(S)-yl)ethyl]-2(R)-(cyclopropylmethyl)butanediamide] showed an IC50 of 15 nM.
Compound `CC(C)C[C@H](O)[C@H](O)[C@H](CC1CCCCC1)NC(=O)[C@@H](CC(=O)N(CCO)CC1CCCCC1)CC1CC1` [Compound 31, N^4-(cyclohexylmethyl)-N^4-(2-hydroxyethyl)-N^1-[1(S)-(cyclohexylmethyl)-2(R),3(S)-dihydroxy-5-methylhexyl]-2(R)-(cyclopropylmethyl)butanediamide] has an IC50 of 100 nM.
For `Cc1ccccc1CN(CC(C)(C)O)C(=O)C[C@@H](Cc1csc(N)n1)C(=O)N[C@@H](CC1CCCCC1)[C@@H](O)[C@@H](O)CC(C)C` [Compound 57, N^4-[(2-methylphenyl)methyl]-N^4-(2-hydroxy-2-methylpropyl)-N^1-[1(S)-(cyclohexylmethyl)-2(R),3(S)-dihydroxy-5-methylhexyl]-2(R)-[(2-amino-4-thiazolyl)methyl]butanediamide], the IC50 was 37 nM.
`CC(C)C[C@H](O)[C@H](O)[C@H](CC1CCCCC1)NC(=O)[C@@H](CC(=O)N(Cc1ccco1)CC(C)(C)O)Cc1csc(N)n1` [Compound 55, N^4-(2-furanylmethyl)-N^4-(2-hydroxy-2-methylpropyl)-N^1-[1(S)-(cyclohexylmethyl)-2(R),3(S)-dihydroxy-5-methylhexyl]-2(R)-[(2-amino-4-thiazolyl)methyl]butanediamide] gave an IC50 of 21 nM.
Work on `CC(C)C[C@H](O)[C@H](O)[C@H](CC1CCCCC1)NC(=O)[C@@H](CC(=O)NC[C@H](O)C1CCCCC1)CC1CC1` [Compound 20 (R), N^4-(R)-(2-cyclohexyl-2-hydroxyethyl)-N^1-[1(S)-(cyclohexylmethyl)-2(R),3(S)-dihydroxy-5-methylhexyl]-2(R)-(cyclopropylmethyl)butanediamide] yielded an IC50 of 115 nM.
Compound `CC(C)C[C@H](O)[C@H](O)[C@H](CC1CCCCC1)NC(=O)[C@@H](CC(=O)N(CC1CCCCCC1)CC(C)(C)O)Cc1csc(N)n1` [Compound 48, N^4-(cycloheptylmethyl)-N^4-(2-hydroxy-2-methylpropyl)-N^1-[1(S)-(cyclohexylmethyl)-2(R),3(S)-dihydroxy-5-methylhexyl]-2(R)-[(2-amino-4-thiazolyl)methyl]butanediamide] has an IC50 of 5 nM.
Work on `CC(C)C[C@H](O)[C@H](O)[C@H](CC1CCCCC1)NC(=O)[C@@H](CC(=O)N(Cc1ccc2c(c1)OCO2)CC1(O)CCCCC1)Cc1cscn1` [Compound 33, N^4-[(1-hydroxycyclohexyl)methyl]-N^4-[(3,4-methylenedioxyphenyl)methyl]-N^1-[1(S)-(cyclohexylmethyl)-2(R),3(S)-dihydroxy-5-methylhexyl]-2(R)-(4-thiazolylmethyl)butanediamide] yielded an IC50 of 11 nM.
In the case of `CC(C)C[C@H](O)[C@H](O)[C@H](CC1CCCCC1)NC(=O)[C@@H](CC(=O)N(CC1CCCCC1)CC(C)(C)O)Cc1csc(N)n1` [Compound 41, N^4-(cyclohexylmethyl)-N^4-(2-hydroxy-2-methylpropyl)-N^1-[1(S)-(cyclohexylmethyl)-2(R),3(S)-dihydroxy-5-methylhexyl]-2(R)-[(2-amino-4-thiazolyl)methyl]butanediamide], the IC50 is reported as 9 nM.
`COC1(CN(CC(=O)N(C)CCc2ccccn2)C(=O)C[C@@H](Cc2csc(N)n2)C(=O)N[C@@H](CC2CCCCC2)[C@@H](O)[C@@H](O)CC(C)C)CCCCC1` [Compound 62, N^4-[(1-methoxycyclohexyl)methyl]-N^4 -{2-{methyl[2-(2-pyridinyl)ethyl]amino}-2-oxoethyl}-N^1-[1(S)-(cyclohexylmethyl)-2(R),3(S)-dihydroxy-5-methylhexyl]-2(R)-[(2-amino-4-thiazolyl)methyl]butanediamide] was tested, and the IC50 was 2 nM.
With `CC(C)C[C@H](O)[C@H](O)[C@H](CC1CCCCC1)NC(=O)[C@@H](CC(=O)N(CC(=O)N(C)C)CC1(O)CCCCC1)CC1CC1` [Compound 23, N^4-[(1-hydroxycyclohexyl)methyl]-N^4-[2-(dimethylamino)-2-oxoethyl]-N^1-[1(S)-(cyclohexylmethyl)-2(R),3(S)-dihydroxy-5-methylhexyl]-2(R)-(cyclopropylmethyl)butanediamide] the IC50 was 16 nM.
In the case of `CC(C)C[C@H](O)[C@H](O)[C@H](CC1CCCCC1)NC(=O)[C@@H](CC(=O)N(Cc1ccccn1)CC1(O)CCCCCC1)CC1CC1` [Compound 8, N^4-[(1-hydroxycycloheptyl)methyl]-N^4-(2-pyridinylmethyl)-N^1-[1(S)-(cyclohexylmethyl)-2(R),3(S)-dihydroxy-5-methylhexyl]-2(R)-(cyclopropylmethyl)butanediamide], the IC50 is reported as 65 nM.
In the case of `CC(C)C[C@H](O)[C@H](O)[C@H](CC1CCCCC1)NC(=O)[C@@H](CC(=O)N(CCO)CC1(O)CCCCC1)Cc1cscn1` [Compound 37, N^4-[(1-hydroxycyclohexyl)methyl]-N^4-(2-hydroxyethyl)-N^1-[1(S)-(cyclohexylmethyl)-2(R),3(S)-dihydroxy-5-methylhexyl]-2(R)-(4-thiazolylmethyl)butanediamide], the IC50 is reported as 16 nM.
Compound `CC(C)C[C@H](O)[C@H](O)[C@H](CC1CCCCC1)NC(=O)[C@@H](CC(=O)N(Cc1ccccc1)CC1(O)CCCCC1)Cc1cscn1` [Compound 27, N^4-benzyl-N^4-[ (1-hydroxycyclohexyl)methyl]-N^1-[1(S)-(cyclohexylmethyl)-2(R),3(S)-dihydroxy-5-methylhexyl]-2(R)-(4-thiazolylmethyl)butanediamide] has an IC50 of 15 nM.
In the case of `CC(C)C[C@H](O)[C@H](O)[C@H](CC1CCCCC1)NC(=O)[C@@H](CC(=O)N(CC(=O)C(C)C)CC1CCCCC1)Cc1cscn1` [Compound 61, N^4-(cyclohexylmethyl)-N^4-(3-methyl-2-oxobutyl)-N^1-[1(S)-(cyclohexylmethyl)-2(R),3(S)-dihydroxy-5-methylhexyl]-2(R)-(4-thiazolylmethyl)butanediamide], the IC50 is reported as 9 nM.
Compound `CC(C)C[C@H](O)[C@H](O)[C@H](CC1CCCCC1)NC(=O)[C@@H](CC(=O)N(CC(=O)N(C)C)CC1(O)CCCCC1)Cc1cscn1` [Compound 34, N^4-[(1-hydroxycyclohexyl)methyl]-N^4-[2-(dimethylamino)-2-oxoethyl]-N^1-[1(S)-(cyclohexylmethyl)-2(R),3(S)-dihydroxy-5-methylhexyl]-2(R)-(4-thiazolylmethyl)butanediamide] has an IC50 of 1.6 nM.
Work on `CC(C)C[C@H](O)[C@H](O)[C@H](CC1CCCCC1)NC(=O)[C@@H](CC(=O)N(Cc1ccc2c(c1)OCO2)CC1(O)CCCCC1)CC1CC1` [Compound 3, N^4-[(1-hydroxycyclohexyl)methyl]-N^4-[(4,5-methylenedioxyphenyl)methyl]-N^1-[1(S)-(cyclohexylmethyl)-2(R),3(S)-dihydroxy-5-methylhexyl]-2(R)-(cyclopropylmethyl)butanediamide] yielded an IC50 of 21 nM.
Compound `CC(C)C[C@H](O)[C@H](O)[C@H](CC1CCCCC1)NC(=O)[C@@H](CC(=O)N(CC1CCCCC1)CC1(O)CCCCC1)CC1CC1` [Compound 25, N^4-(cyclohexylmethyl)-N^4-[(1-hydroxycyclohexyl)methyl]-N^1-[1(S)-(cyclohexylmethyl)-2(R),3(S)-dihydroxy-5-methylhexyl]2(R)-(cyclopropylmethyl)butanediamide] has an IC50 of 79 nM.
With `CC(C)C[C@H](O)[C@H](O)[C@H](CC1CCCCC1)NC(=O)[C@@H](CC(=O)N(CC1CCCCC1)CC(C)(C)O)Cc1cscn1` [Compound 36, N^4-(cyclohexylmethyl)-N^4-(2-hydroxy-2-methylpropyl)-N^1-[1(S)-(cyclohexylmethyl)-2(R),3(S)-dihydroxy-5-methylhexyl]-2(R)-(4-thiazolylmethyl)butanediamide] the IC50 was 7.1 nM.
